Test results taken from PubChem BioAssay AID192 (DTP/NCI, 2004).
Values joined by “and” are separate entries in the source; they are usually repeats but may differ in a detail not shown here. Identical values can stand only once. Toxic doses and inconclusive results are not listed.

System: BDF1 mice, B16 melanoma ip, median survival T/C
Assay: NCI In Vivo Anticancer Drug Screen. Data for tumor model B16 Melanoma (intraperitoneal) in B6D2F1 (BDF1) mice
Details: endpoint: median survival time, higher = longer survival
In short: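 Read-out: survival or tumor size, given as treated/control ratio. Controls received vehicle only; animals bore transplantable tumors.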

[1] = dose: 12.5 mg/kg/injection, schedule: Q01DX009 (ip), vehicle: Klucel (hydroxypropylcellulose) (HPC)
[2] = dose: 25.0 mg/kg/injection, schedule: Q01DX009 (ip), vehicle: Klucel (hydroxypropylcellulose) (HPC)
[3] = dose: 50.0 mg/kg/injection, schedule: Q01DX009 (ip), vehicle: Klucel (hydroxypropylcellulose) (HPC)
[4] = dose: 100.0 mg/kg/injection, schedule: Q01DX009 (ip), vehicle: saline with Tween-80
[5] = dose: 8.0 mg/kg/injection, schedule: Q01DX009 (ip), vehicle: saline
[6] = dose: 16.0 mg/kg/injection, schedule: Q01DX009 (ip), vehicle: saline
[7] = dose: 32.0 mg/kg/injection, schedule: Q01DX009 (ip), vehicle: saline
[8] = dose: 12.5 mg/kg/injection, schedule: Q01DX009 (ip), vehicle: saline with Tween-80
[9] = dose: 25.0 mg/kg/injection, schedule: Q01DX009 (ip), vehicle: saline with Tween-80
[10] = dose: 50.0 mg/kg/injection, schedule: Q01DX009 (ip), vehicle: saline with Tween-80
[11] = dose: 100.0 mg/kg/injection, schedule: Q01DX009 (ip), vehicle: Klucel (hydroxypropylcellulose) (HPC)
[12] = dose: 200.0 mg/kg/injection, schedule: Q01DX009 (ip), vehicle: Klucel (hydroxypropylcellulose) (HPC)

Compound: O=C(O)c1ccccc1C(=O)OC1CC2C=CC1C21CC1 (centres undefined)
- T/C [1]: 96 % of control
- T/C [2]: 96 % of control
- T/C [3]: 93 % of control

Compound: O=[N+]([O-])c1cccc(S(=O)(=O)Nc2ccccc2Cl)c1
- T/C [4]: 90 % of control
- T/C (dose: 200.0 mg/kg/injection, schedule: Q01DX009 (ip), vehicle: saline with Tween-80): 95 % of control
- T/C (dose: 400.0 mg/kg/injection, schedule: Q01DX009 (ip), vehicle: saline with Tween-80): 95 % of control

Compound: CCCCNC(C)(C)C(S)c1ccc(Cl)cc1 (centres undefined)
- T/C (dose: 6.25 mg/kg/injection, schedule: Q01DX009 (ip), vehicle: Klucel (hydroxypropylcellulose) (HPC)): 102 % of control
- T/C [1]: 97 % of control
- T/C [2]: 89 % of control

Compound: O=NN(CCF)C(=O)NC1CCCCC1
- T/C (dose: 7.5 mg/kg/injection, schedule: Q01DX001 (ip), vehicle: saline + alcohol): 115 % of control
- T/C (dose: 15.0 mg/kg/injection, schedule: Q01DX001 (ip), vehicle: saline + alcohol): 106 % of control
- T/C (dose: 30.0 mg/kg/injection, schedule: Q01DX001 (ip), vehicle: saline + alcohol): 119 % of control
- T/C (dose: 60.0 mg/kg/injection, schedule: Q01DX001 (ip), vehicle: saline + alcohol): 171 % of control
- T/C (dose: 120.0 mg/kg/injection, schedule: Q01DX001 (ip), vehicle: saline + alcohol): 166 % of control

Compound: O=C1CCCN1
- T/C (dose: 100.0 mg/kg/injection, schedule: Q01DX009 (ip), vehicle: saline): 100 % of control
- T/C (dose: 400.0 mg/kg/injection, schedule: Q01DX009 (ip), vehicle: saline): 94 % of control

Compound: COc1ccc(N=C(C(=Nc2ccc(OC)cc2)c2ccccc2)c2ccccc2)cc1
- T/C (dose: 100.0 mg/kg/injection, schedule: Q04DX003 (ip), vehicle: Klucel (hydroxypropylcellulose) (HPC)): 102 % of control
- T/C (dose: 200.0 mg/kg/injection, schedule: Q04DX003 (ip), vehicle: Klucel (hydroxypropylcellulose) (HPC)): 103 % of control
- T/C (dose: 400.0 mg/kg/injection, schedule: Q04DX003 (ip), vehicle: Klucel (hydroxypropylcellulose) (HPC)): 101 % of control

Compound: Nc1nncs1
- T/C [5]: 104 % of control
- T/C (dose: 16.0 mg/kg/injection, schedule: Q01DX009 (ip), vehicle: other): 111 % of control
- T/C [6]: 99 % of control
- T/C (dose: 32.0 mg/kg/injection, schedule: Q01DX009 (ip), vehicle: other): 106 % of control
- T/C [7]: 105 % of control
- T/C (dose: 64.0 mg/kg/injection, schedule: Q01DX009 (ip), vehicle: other): 104 % of control

Compound: CCCCOC(=O)/C=C(\Br)C(=O)OCCCC
- T/C (dose: 6.25 mg/kg/injection, schedule: Q01DX009 (ip), vehicle: saline with Tween-80): 99 % of control and 100 % of control
- T/C [8]: 98 % of control and 104 % of control
- T/C [9]: 86 % of control and 98 % of control
- T/C [10]: 91 % of control
- T/C [4]: 90 % of control

Compound: c1ccc(CNC(Cc2ccccc2)c2ccc(OCc3ccccc3)cc2)cc1 (centres undefined)
- T/C [11]: 106 % of control
- T/C [12]: 96 % of control
- T/C (dose: 400.0 mg/kg/injection, schedule: Q01DX009 (ip), vehicle: Klucel (hydroxypropylcellulose) (HPC)): 93 % of control

Compound: O=C(O)C(c1ccccc1)C1CCCC1 (centres undefined)
- T/C [8]: 109 % of control
- T/C [9]: 111 % of control
- T/C [10]: 94 % of control and 106 % of control

Compound: CCC[P+](c1ccccc1)(c1ccccc1)c1ccccc1
- T/C (dose: 2.0 mg/kg/injection, schedule: Q01DX009 (ip), vehicle: saline): 96 % of control
- T/C (dose: 4.0 mg/kg/injection, schedule: Q01DX009 (ip), vehicle: saline): 98 % of control
- T/C [5]: 115 % of control
- T/C [6]: 115 % of control
- T/C [7]: 108 % of control

Compound: COc1cc(C)c(C2NC(=O)c3ccccc3N2)cc1C (centres undefined)
- T/C [2]: 103 % of control
- T/C [3]: 113 % of control
- T/C [11]: 115 % of control
- T/C [12]: 121 % of control

Compound: COc1ccc2c(c1)c(C#N)cc[n+]2C
- T/C (dose: 3.13 mg/kg/injection, schedule: Q01DX009 (ip), vehicle: saline): 102 % of control
- T/C (dose: 6.25 mg/kg/injection, schedule: Q01DX009 (ip), vehicle: saline): 100 % of control

Compound: Brc1cc(Br)c(-c2c(Br)cc(Br)cc2Br)c(Br)c1
- T/C [11]: 102 % of control
- T/C [12]: 88 % of control
